Data reported in patent publication US20090215859A1, “Compositions and methods for modulating dhr96” (priority 2004, published 2009).
“Also recorded” adds a separate entry of the source.

What was measured:
[1] = system: Cyp6a2 and Cyp6a8 transcription; assay: Northern blot hybridization of Cyp transcription in adult flies treated with phenobarbital; details: adult flies treated with 0.3%, 1%, and 3% phenobarbital
Procedure: Each treatment is done in triplicate. RNA is extracted from each set of animals, purified by TRIzol extraction (Gibco BRL) followed by RNeasy column chromatography (Qiagen), and ethanol precipitation. The RNA is then labeled and hybridized to Affymetrix GeneChip® Drosophila Genome 2.0 arrays designed to detect 18,500 Drosophila transcripts. Data is then analyzed using DChip 1.3 (http://biosun1.harvard.edu/complab/dchip/) and Significance Analysis of Microarrays (SAM).

[2] = solvent or supplied form; cited from earlier work
C. elegans nhr-8 mutant = details: mutation in the nuclear receptor nhr-8 gene; cited from earlier work
[3] = system: Canton S and outcrossed DHR96E25 mutant larvae; assay: Tebufenozide administered to larvae in the food, surviving adult flies scored; type: in vivo, Drosophila melanogaster; details: larvae raised on food supplemented with the drug
Procedure: (§1) A dose response curve is shown. Twenty wild type or DHR96^E25 mutant flies were exposed to eight DDT concentrations, from 0.78 to 100 ng/μl, and then scored for survival 10 hours later. A similar test was conducted for sensitivity to tebufenizide (FIG. 11C) using larvae raised on food supplemented with the drug.
(§2) The adult Canton S flies and the DHR96E25 outcrossed lines were exposed to varying concentrations of drug and recorded effects after a fixed time (FIG. 11). DDT was assayed by starving young healthy adult flies overnight and then transferring them to vials, in three groups of 20 flies each, with filter paper soaked with 5% sucrose alone or 5% sucrose and DDT at different concentrations. The number of living flies was scored after 23 hours. […] Tebufenozide was administered to larvae in the food, and the number of surviving adult flies was scored.
The above assays are for testing the effect of xenobiotics on adult flies. Compounds can also be tested for their larvicidal effects by administering them in the food to staged populations of larvae (Grant et al. Bull. Envir. Contam. Tox. 69:35-40, 2002). DHR96 and Canton S control flies are maintained on normal cornmeal/molasses agar supplemented with yeast. Egg lays are collected overnight from these stocks and used to innoculate fresh vials of food supplemented with a specific concentration of the drug to be tested. […]

[4] = target: T1, GAL4-DHR96 fusion protein (Drosophila melanogaster, UniProt Q24143); assay: GAL4-LBD activation assay in cultured third instar larval organs (UAS-lacZ, Xgal staining); type: cell-based; details: organs of heat-induced hs-GAL4-DHR96; UAS-lacZ third instar larvae cultured with 1×10^−5 M tebufenozide
T1 construct: expressed in transfected cells; host or cells: transgenic Drosophila third instar larvae (hs-GAL4-DHR96; UAS-lacZ), dissected organs in culture
T1 sequence (Q24143 99-723): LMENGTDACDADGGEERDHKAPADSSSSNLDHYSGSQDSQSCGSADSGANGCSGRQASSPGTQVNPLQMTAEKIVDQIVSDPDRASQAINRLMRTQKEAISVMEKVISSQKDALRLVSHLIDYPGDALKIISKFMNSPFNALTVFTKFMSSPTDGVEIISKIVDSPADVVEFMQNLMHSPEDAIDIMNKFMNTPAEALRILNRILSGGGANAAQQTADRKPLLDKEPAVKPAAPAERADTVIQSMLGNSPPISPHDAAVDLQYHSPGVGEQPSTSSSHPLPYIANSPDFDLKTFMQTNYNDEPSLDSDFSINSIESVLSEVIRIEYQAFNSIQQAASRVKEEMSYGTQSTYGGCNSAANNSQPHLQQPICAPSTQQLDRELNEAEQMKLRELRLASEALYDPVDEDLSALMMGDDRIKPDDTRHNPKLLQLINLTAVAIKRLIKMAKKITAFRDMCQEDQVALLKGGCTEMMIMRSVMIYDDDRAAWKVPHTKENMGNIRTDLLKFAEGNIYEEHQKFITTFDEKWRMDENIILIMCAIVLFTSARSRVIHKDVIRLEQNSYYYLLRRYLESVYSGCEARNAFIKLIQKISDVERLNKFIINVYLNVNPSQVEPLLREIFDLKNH
Description: A gene fusion of the GAL4 DNA binding domain (DBD) and DHR96 ligand binding domain (LBD) is expressed upon heat-induction of the hsp70 promoter. The resultant fusion protein can bind to GAL4 response elements (UAS) on a seperate transgenic construct, but will only activate lacZ transcription in the presence of an appropriate ligand and/or co-factors (a ligand is shown). β-galactosidase expression is detected as the substrate from an Xgal staining reaction.
Third instar larvae were heat-treated to induce GAL4-DHR96 expression, dissected, and organs were cultured in the presence of 1×10^−5 M tebufenozide. UAS-lacZ reporter gene expression was detected by Xgal staining. […]
DHR96 activation can be assayed for by using a method established to follow the activation status of a nuclear receptor ligand binding domain (LBD) in a developing animal. […] Expression of β-galactosidase can be detected by histochemical staining using X-gal as a substrate, generating a blue dye (FIGS. 13, 14). […]
An advantage of the GAL4-LBD system is that it can be used in tissues dissected from transgenic larvae to test specific compounds for their ability to activate the fusion protein. […] A similar assay can be used to test the ability of xenobiotic compounds to activate the GAL4-DHR96 fusion protein in cultured larval organs, using either UAS-lacZ or UAS-GFP as a readout. […]

DHR38 = details: cultured larval organs; cited from earlier work
[5] = system: wild type (Canton S) and DHR96 mutant adult flies; assay: Toxicity assay: adult flies exposed to DDT in 5% sucrose on filter paper, survival scored; type: in vivo, Drosophila melanogaster
Procedure: A time course is shown. 20 wild type or DHR96^E25 mutant flies were treated with a high concentration of DDT (100 ng/μl) and assayed for survival every hour up to 10 hours. Each assay (A+B) was done in triplicate to determine the standard deviation as shown by the error bars.
as §1
Adult flies were raised on standard cornmeal/agar food and starved overnight under humid conditions at 25 0 C before treatment with DDT. A DDT stock solution was prepared by dissolving crystalline DDT (Sigma) in 100% ethanol. Appropriate DDT dilutions were made by diluting the DDT stock with 5% sucrose and pipetting 275 μl of the solution onto a strip of Whatman filter paper inside a small glass scintillation vial. Twenty adult flies were placed in each vial which was plugged with cotton. Mortality was scored 10 hours later at room temperature. For each DDT concentration, three replicates, each of twenty adult flies, were used. For the time course assay, 100 ng/μl of DDT was used and mortality scored every hour for 10 hours.
As a test of DHR96 acting in a xenobiotic pathway, DHR96 mutants were tested for sensitivity to the pesticide DDT. Adult wild type flies (Canton S) and DHR96^16A were exposed or DHR96^E25 flies to varying concentrations of DDT and recorded survival rates after a fixed time.
as §2

Cyp6g1 = Cyp6g1 induction by DDT in Canton S flies; type: in vivo, Drosophila melanogaster; details: one experiment
Description: Validation can be conducted on selected genes, covering the different classes of detoxification pathways as well as new players that identified. Similar microarray studies using at least two other compounds, depending on which compounds show an effect in the viability and behavioral assays. It will be confirmed that wild type Canton S flies show a response to DDT using Cyp12d1 and other P450 genes as probes for northern blot hybridization. […] Other pesticides can also be surveyed for effects on a select group of Cyp gene targets to identify other compounds for use in comparative microarray profiling. […] Determining the transcriptional response to more than one xenobiotic compound can provide an initial impression of how insects respond to different toxins in their environment. […] Alternatively, the genetic response may be fine-tuned to combat specific xenobiotic compounds.

[6] = living flies scored after 23 hours

CCC1(c2ccccc2)C(=O)NC(=O)NC1=O [phenobarbital]
Cyp6a2 and Cyp6a8 transcription in the DHR96 mutant [1]: no change in expression
Cyp6a2 and Cyp6a8 transcription in wild type animals [1]: dramatic induction

CNC(=O)Oc1cccc2ccccc12 [Carbaryl]
Solubility [2]: water

COc1cc2c(c(OC)c1OC)-c1ccc(OC)c(=O)cc1[C@@H](NC(C)=O)CC2 [Colchicine]
Resistance of nhr-8 mutant to the compound (C. elegans nhr-8 mutant): reduced resistance
Solubility [2]: ethanol

CCc1ccc(C(=O)NN(C(=O)c2cc(C)cc(C)c2)C(C)(C)C)cc1 [tebufenozide]
Sensitivity of the outcrossed DHR96E25 mutant to tebufenozide (surviving adult flies) [3]: slight sensitivity
Activation of GAL4-DHR96 (UAS-lacZ reporter gene expression) [4]: activated; also recorded: reproducible and distinct pattern of activation

C[n+]1ccc(-c2cc[n+](C)cc2)cc1 [Paraquat]
Solubility [2]: water

C[C@H]([C@H](O)CCC(C)(C)O)[C@H]1CC[C@@]2(O)C3=CC(=O)[C@@H]4C[C@@H](O)[C@@H](O)C[C@]4(C)[C@H]3CC[C@]12C [α-ecdysone]
Activation of DHR38 in the GAL4-LBD system (DHR38): can be activated

Clc1ccc(C(c2ccc(Cl)cc2)C(Cl)(Cl)Cl)cc1 [DDT]
Solubility [2]: ethanol
Speed of death at a fixed concentration of DDT, DHR96 homozygotes vs wild type flies ([5]; 100 ng/μl DDT, mortality scored every hour for 10 hours): died more rapidly
Sensitivity to DDT (survival after a fixed time at varying concentrations), DHR96 mutants compared to control animals ([5]; adult DHR96^16A or DHR96^E25 flies vs Canton S, 0.78 to 100 ng/μl DDT, scored 10 hours later): more sensitive
Sensitivity to DDT treatment, original DHR96E25 mutant line vs Canton S [5, 6]: more sensitive
Sensitivity to DDT, outcrossed DHR96E25 line vs Canton S [5, 6]: no such sensitivity
Cyp6g1 induction (Cyp6g1): low level

CC(=O)[C@H]1[C@H](C#N)C[C@H]2[C@@H]3CC=C4C[C@@H](O)CC[C@]4(C)[C@H]3CC[C@@]21C [PCN]
Solubility [2]: DMSO

CCN(CC)C(=S)[S-].O.O.O.[Na+] [Sodium diethyldithiocarbamate trihydrate]
Solubility [2]: water

COP(=S)(OC)Oc1ccc([N+](=O)[O-])cc1 [Methyl parathion]
Solubility [2]: acetone

CCN(CC)CCCC(C)Nc1ccnc2cc(Cl)ccc12 (stereo not shown) [chloroquine]
Resistance of nhr-8 mutant to the compound (C. elegans nhr-8 mutant): reduced resistance

CC(C)(O)CC[C@@H](O)[C@](C)(O)[C@H]1CC[C@@]2(O)C3=CC(=O)[C@@H]4C[C@H](O)[C@@H](O)C[C@]4(C)[C@H]3CC[C@]12C [3-epi-20-hydroxyecdysone]
Activation of DHR38 in the GAL4-LBD system (DHR38): can be activated

CO[C@H]1/C=C/O[C@@]2(C)Oc3c(C)c(O)c4c(O)c(c(/C=N/N5CCN(C)CC5)c(O)c4c3C2=O)NC(=O)/C(C)=C\C=C\[C@H](C)[C@H](O)[C@@H](C)[C@@H](O)[C@@H](C)[C@H](OC(C)=O)[C@@H]1C [Rifampicin]
Solubility [2]: DMSO

O=[N+]([O-])/C=C1\NCCCS1 [Nithiazine]
Solubility [2]: water
